Assay results: the supplement of paper PMC10307832

Experiments:
Assay in all cases: relative viability (nuclei count vs DMSO), 5 days (fraction); higher = more cells survive
4EGI-1 + Pictilisib = compound: O=C(O)C(Cc1ccccc1[N+](=O)[O-])=NNc1nc(-c2ccc(Cl)c(Cl)c2)cs1 (mixture of isomers) [4EGI-1] + CS(=O)(=O)N1CCN(Cc2cc3nc(-c4cccc5[nH]ncc45)nc(N4CCOCC4)c3s2)CC1 [Pictilisib] (partner 1 µM)
Outline: (§1)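 Lung cancer cell lines were seeded in 1536-well plates and dosed by pin tool the next day, with either a single drug or a fixed anchor-drug dose combined with five library-drug doses (not always all listed) spaced in √10 steps. Five days later, one step fixed the cells and stained their nuclei (final 0.05% Triton X-100, 1% formaldehyde, 1 ug/ml Hoechst), and nuclei were counted on 4× images. Relative viability is the nuclei count in treated wells divided by the count in vehicle wells, and each value is the median of duplicate plates.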

XMD8-85 + Alpelisib = compound: CN1CCN(CC1)C2=CC(=C(C=C2)NC3=NC=C4C(=N3)N(C5=CC=CC=C5C(=O)N4C)C)OC [XMD8-85] + Cc1nc(NC(=O)N2CCC[C@H]2C(N)=O)sc1-c1ccnc(C(C)(C)C(F)(F)F)c1 [Alpelisib] (partner 2 µM)
Outline: as §1

4EGI-1 + Pemetrexed = compound: O=C(O)C(Cc1ccccc1[N+](=O)[O-])=NNc1nc(-c2ccc(Cl)c(Cl)c2)cs1 (mixture of isomers) [4EGI-1] + Nc1nc2[nH]cc(CCc3ccc(C(=O)N[C@@H](CCC(=O)O)C(=O)O)cc3)c2c(=O)[nH]1 [Pemetrexed] (partner 0.2 µM)
Outline: as §1

XMD8-85 + Palbociclib = compound: CN1CCN(CC1)C2=CC(=C(C=C2)NC3=NC=C4C(=N3)N(C5=CC=CC=C5C(=O)N4C)C)OC [XMD8-85] + CC(=O)c1c(C)c2cnc(Nc3ccc(N4CCNCC4)cn3)nc2n(C2CCCC2)c1=O [Palbociclib] (partner 0.5 µM)
Outline: as §1

Cell Line	relative viability (4EGI-1 + Pictilisib; first compound 0.5 µM)	relative viability (4EGI-1 + Pictilisib; first compound 1.581 µM)	relative viability (4EGI-1 + Pictilisib; first compound 5 µM)	relative viability (4EGI-1 + Pictilisib; first compound 15.81 µM)	relative viability (4EGI-1 + Pictilisib; first compound 50 µM)	relative viability (XMD8-85 + Alpelisib; first compound 0.08 µM)	relative viability (XMD8-85 + Alpelisib; first compound 0.253 µM)	relative viability (XMD8-85 + Alpelisib; first compound 0.8 µM)	relative viability (XMD8-85 + Alpelisib; first compound 2.53 µM)	relative viability (XMD8-85 + Alpelisib; first compound 8 µM)	relative viability (4EGI-1 + Pemetrexed; first compound 0.5 µM)	relative viability (4EGI-1 + Pemetrexed; first compound 1.581 µM)	relative viability (4EGI-1 + Pemetrexed; first compound 5 µM)	relative viability (4EGI-1 + Pemetrexed; first compound 15.81 µM)	relative viability (4EGI-1 + Pemetrexed; first compound 50 µM)	relative viability (XMD8-85 + Palbociclib; first compound 0.08 µM)	relative viability (XMD8-85 + Palbociclib; first compound 0.253 µM)	relative viability (XMD8-85 + Palbociclib; first compound 0.8 µM)	relative viability (XMD8-85 + Palbociclib; first compound 2.53 µM)	relative viability (XMD8-85 + Palbociclib; first compound 8 µM)
BEN	0.594	0.656	0.667	0.51	0.46	0.871	1.06	0.966	0.662	0.553	0.814	0.785	0.772	0.622	0.432	0.466	0.449	0.475	0.446	0.463
SK-MES-1	0.458	0.349	0.338	0.303	0.347	0.769	0.654	1.03	1.02	–	0.979	0.713	0.968	0.751	0.24	0.342	0.351	0.31	–	0.248
IA-LM	0.349	0.317	0.243	0.0957	0.08	0.613	–	0.66	0.77	0.225	–	–	–	–	–	–	–	–	–	–
CAL-12T	–	–	0.431	0.347	0.225	1.28	1.3	1.11	0.842	0.658	1.21	–	1.25	1.14	0.86	0.308	0.499	–	0.474	0.196
ABC-1	0.898	0.647	0.724	0.359	0.268	1.03	1.15	1.37	1.01	–	–	–	–	–	–	0.468	0.598	0.781	0.689	–
LCLC-97TM1	0.174	–	0.175	0.199	0.105	0.294	0.238	0.293	0.263	0.36	0.181	–	0.195	0.165	0.114	0.192	0.188	0.188	0.204	0.239
PC-14	0.879	0.464	0.602	–	0.704	0.784	0.882	0.762	0.993	0.655	0.135	–	0.159	0.185	0.0861	0.552	0.44	0.596	0.404	0.167
NCI-H23	0.481	–	0.561	0.579	0.343	0.608	0.824	0.741	0.64	0.391	0.819	–	0.77	0.551	0.274	0.488	–	0.525	0.441	0.413
NCI-H727	0.382	0.451	0.26	0.344	0.328	0.759	0.541	0.546	0.534	0.304	–	–	–	–	–	–	0.689	0.6	0.6	–
A549	0.456	0.454	0.603	0.433	0.0907	0.744	0.883	0.806	0.807	0.759	–	–	–	–	–	–	–	–	–	–
COR-L 105	0.464	0.356	0.447	0.342	0.325	–	1.22	0.926	0.635	0.358	1.2	0.996	1.14	0.905	0.98	0.421	0.423	0.368	0.382	0.409
NCI-H650	1.13	–	1.09	0.969	0.723	1.09	0.928	1.17	0.979	0.592	0.966	–	1.06	0.973	0.725	0.275	0.32	0.302	0.288	0.255
NCI-H1975	0.309	0.324	0.316	0.322	0.294	0.578	0.649	0.656	0.727	0.372	0.298	0.274	0.287	0.283	0.21	0.587	0.511	0.524	0.651	0.296
NCI-H2023	0.275	–	0.207	0.177	0.0916	0.488	0.623	0.66	0.664	0.334	0.263	–	0.223	0.164	0.101	0.368	0.441	0.334	0.411	0.246
EMC-BAC-2	0.642	0.492	0.579	0.514	0.502	0.74	0.739	0.752	0.733	0.72	0.418	–	0.466	0.482	0.323	0.494	0.495	0.504	0.473	0.458
LK-2	0.621	–	0.696	0.64	0.541	1.16	1.04	1.12	1.26	0.694	0.303	–	0.336	0.289	0.179	0.554	0.778	0.592	0.491	0.668
EPLC-272H	0.338	0.306	0.369	0.293	0.205	–	0.916	0.93	1.01	0.624	0.372	0.304	0.322	0.29	0.245	0.284	0.317	0.312	0.306	0.303
HCC-366	0.222	–	0.119	0.0976	0.0789	0.532	0.573	0.42	0.373	0.273	0.154	0.18	0.184	0.147	0.111	0.316	0.298	0.375	0.291	0.196
NCI-H1793	0.363	0.266	0.377	0.241	0.235	0.914	0.769	0.666	0.851	0.668	1.09	0.905	1.1	0.659	0.304	–	0.251	0.319	0.38	0.208
